According to US9073966B2, “Inhibition of sweat malodor” (Firmenich SA, priority 2005, dated 2015):

Tested on: production of (S)-3-methyl-3-sulfanylhexan-1-ol
Assay: Screening of potentially malodor-inhibiting compounds: micro-organisms incubated with the Cys-Gly precursor, VSC quantified by GC-AED (procedure of Example 6)
Format: cell-based
Settings: for inhibition of production of (S)-3-methyl-3-sulfanylhexan-1-ol: compounds added at 2 μmole
Experimental: Bacteria isolates were grown aerobically in the appropriate liquid media at 37° C. until OD600=1.0. Cells were harvested by centrifugation at 3000 g, 10 min, washed once with sterile 0.1M phosphate buffer (pH 6.0) and resuspended in fresh buffer. The concentration of individual strains incubated with the sweat precursor was between 1.10^+8 and 1.10^+10 cfu/mL. These freshly prepared bacteria (5 mL), were incubated with 0.1 mL of precursors (5 mg in 10 mL water), (or the sweat fraction, in Example 1 above), at 37° C. pH 6 in a close bottle. After the incubation time 1, 4 and 18 hours, 1 mL of ethyl acetate containing octanethiol and octadecane at 0.02 mg/mL was added and the fermentation broth was centrifuged at 16′000 g. The organic phase was directly injected on a GCSPB1 column coupled to MS and on a GCDMePeBetacdx chiral column coupled to AED detection. These experiments were repeated three times, two blanks were done with the micro-organism without the precursor and one with the precursor in the growing buffer only. No formation of sulfur compound was detected in blanks. The response factor for 1 μL injected of a solution 0.01 mg/mL of octanethiol was calculated in comparison of 1 μL injected of a racemic solution of 0.01 mg/mL of 3-methyl-3-sulphanylhexane-1-ol. The addition of both peaks areas (R/S) gave 280 (+/−5) and octanethiol 303 (+/−3) peaks surface over for injections so we used as an approximation a response factor of 1. Correlation factor for 1 μL injected on both column, were above 0.998 in the range of 1 to 10 ppm of (R/S)-3-methyl-3-sulfanylhexane-1-ol.
Micro-organisms suspended in fresh buffer (Example 5, detailed fermentation protocol) were split in two samples X and Y (negative control) of 5 mL.
[drawing 12] (obtained in Example 9) was added to sample X at a concentration of 2 μmol/L.
The samples comprising suspended micro-organisms and the compound to be screened were incubated at 37° C. for 30 min. […]
After the incubation times of 1, 4 and 18 hours, the increase of malodorous substance (compound 1 in FIG. 2) is briefly determined by sniffing of a trained person. […]
For the internal standard, the response factor for 1 μL injected of a solution 0.01 mg/mL of octanethiol was calculated in comparison of 1 μL injected of a racemic solution of 0.01 mg/mL of 3-methyl-3-sulphanylhexane-1-ol. […]
Stoichiometrically, 0.2 μmol of precursor produces 0.025 mg of VSC in 1 ml ethylacetate, if all precursor is metabolized. If less than […] of VSC is measured in sample X by the AED system, the screened compound, β-Cl-ala-gly, has the ability to reduce the development of malodor. […]

SMILES | inhibition of production of (S)-3-methyl-3-sulfanylhexan-1-ol (procedure of Example 6) [%] | effect on formation of metabolites like compound II upon screening (compound (VII) with Z being NH) | production of (S)-3-methyl-3-sulfanylhexan-1-ol compared to the control (compound added at 2 μmole, procedure of Example 6)
C#CC[C@H](N)C(=O)NCC(=O)O [Compound VI, N-[(2S)-2-amino-4-pentynoyl]glycine] | 75 |  | 
Nc1cccc(C(=O)NCC(=O)O)c1 [Compound VII, N-[3-amino-benzoyl]glycine] |  | clear and confirmed increase of metabolites | increased production
N[C@@H]1C=C(C(=O)NCC(=O)O)SC1 [IIIa, N-{[(4R)-4-amino-4,5-dihydro-2-thienyl]carbonyl}glycine] | 25 |  | 
